Test results as given in ChEMBL document CHEMBL1201862, “PubChem BioAssay data set” (2004).
Values joined by “and” are separate entries in the source; they are usually repeats but may differ in a detail not shown here. Equal values may be shown once.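 Cells were grown in 96-well plates and exposed to each compound for 48 hours at five concentrations; endpoints were interpolated linearly between bracketing concentrations, or set to the highest concentration if not reached. GI50: concentration for 50% inhibition of growth.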 Active and inactive are the calls of the source. Rule as the data show it: active = GI50 up to about 1.1 µM and inactive = higher.

How the values were obtained:
Experiment in all cases: growth of human tumour cells (NCI), 48 h
786-0 = tested on: 786-0
CCRF-CEM = tested on: CCRF-CEM
EKVX = tested on: EKVX
HOP-92 = tested on: HOP-92
HT-29 = tested on: HT-29
IGROV-1 = tested on: IGROV-1
LOX IMVI = tested on: LOX IMVI
MOLT-4 = tested on: MOLT-4
NCI-H226 = tested on: NCI-H226
OVCAR-4 = tested on: OVCAR-4
OVCAR-5 = tested on: OVCAR-5
RXF 393 = tested on: RXF 393
SF-539 = tested on: SF-539
SK-MEL-2 = tested on: SK-MEL-2
SK-MEL-5 = tested on: SK-MEL-5
SNB-75 = tested on: SNB-75
U-251 = tested on: U-251
UACC-62 = tested on: UACC-62
CAKI-1 = tested on: CAKI-1

Compound	GI50 (786-0)	GI50 (CCRF-CEM)	GI50 (EKVX)	GI50 (HOP-92)	GI50 (HT-29)	GI50 (IGROV-1)	GI50 (LOX IMVI)	GI50 (MOLT-4)	GI50 (NCI-H226)	GI50 (OVCAR-4)	GI50 (OVCAR-5)	GI50 (RXF 393)	GI50 (SF-539)	GI50 (SK-MEL-2)	GI50 (SK-MEL-5)	GI50 (SNB-75)	GI50 (U-251)	GI50 (UACC-62)	GI50 (CAKI-1)
C(=C\c1c2oc(-c3ccccc3)cc(-c3ccccc3)c-2c2ccccc12)/C=C1\c2ccccc2-c2c(-c3ccccc3)cc(-c3ccccc3)[o+]c21.[O-][Cl+3]([O-])([O-])[O-]	> 100 µM (inactive)	> 100 µM (inactive)	> 100 µM (inactive)	> 100 µM (inactive)	> 100 µM (inactive)	> 100 µM (inactive)	> 100 µM (inactive)	> 100 µM (inactive)	> 100 µM (inactive)	> 100 µM (inactive)	> 100 µM (inactive)	> 100 µM (inactive)	> 100 µM (inactive)	> 100 µM (inactive)	> 100 µM (inactive)	45.9 µM (inactive)	> 100 µM (inactive)	> 100 µM (inactive)	–
Cc1c2cc[n+](C)cc2c(C)c2c1[nH]c1ccc(O)c(OCC(F)(F)F)c12	1.46 µM (inactive)	4.97 µM (inactive)	2.68 µM (inactive)	4.91 µM (inactive)	9.82 µM (inactive)	5.86 µM (inactive)	13 µM (inactive)	2.42 µM (inactive)	0.432 µM (active)	1.26 µM (inactive)	7.11 µM (inactive)	–	2.04 µM (inactive)	4.63 µM (inactive)	1.51 µM (inactive)	0.188 µM (active)	0.301 µM (active)	5.66 µM (inactive)	12.8 µM (inactive)
C[N+](C)(C)CC(=O)N/N=C(/C(=O)Nc1ccc(Br)cc1)C1C(=O)NC(=O)NC1=O	> 100 µM (inactive)	> 100 µM (inactive)	> 100 µM (inactive)	–	> 100 µM (inactive)	> 100 µM (inactive)	> 100 µM (inactive)	> 100 µM (inactive)	> 100 µM (inactive)	> 100 µM (inactive)	> 100 µM (inactive)	> 100 µM (inactive)	> 100 µM (inactive)	> 100 µM (inactive)	> 100 µM (inactive)	> 100 µM (inactive)	> 100 µM (inactive)	> 100 µM (inactive)	> 100 µM (inactive)
COc1cccc2c1C(=O)C=CC2=O	11.5 µM (inactive)	0.281 µM (active)	18.5 µM (inactive)	1.99 µM (inactive)	11 µM (inactive)	12.2 µM (inactive)	–	0.526 µM (active)	19.1 µM (inactive)	1.95 µM (inactive)	18.9 µM (inactive)	6.76 µM (inactive)	16.1 µM (inactive)	10.1 µM (inactive)	15.3 µM (inactive)	14.8 µM (inactive)	6.81 µM (inactive)	10.9 µM (inactive)	7.66 µM (inactive)
CN(C)/N=N/c1ccccc1	> 100 µM (inactive)	22 µM (inactive)	> 100 µM (inactive)	> 100 µM (inactive)	> 100 µM (inactive)	34.3 µM (inactive)	–	> 100 µM (inactive)	> 100 µM (inactive)	> 100 µM (inactive)	–	> 100 µM (inactive)	> 100 µM (inactive)	> 100 µM (inactive)	> 100 µM (inactive)	> 100 µM (inactive)	> 100 µM (inactive)	–	> 100 µM (inactive)
COc1ccc(O)c(/C=N\Nc2ccccc2)c1	32.3 µM (inactive)	–	39.7 µM (inactive)	14 µM (inactive)	15.6 µM (inactive)	–	2.44 µM (inactive)	1.39 µM (inactive)	20.6 µM (inactive)	8.45 µM (inactive)	19.5 µM (inactive)	84.3 µM (inactive)	12.2 µM (inactive)	4.8 µM (inactive)	22.5 µM (inactive)	49.9 µM (inactive)	26.2 µM (inactive)	2.6 µM (inactive)	–
S=c1nc(N/N=C/c2cccs2)c2cn[nH]c2[nH]1	27.9 µM (inactive)	–	31.9 µM (inactive)	52.6 µM (inactive)	29.5 µM (inactive)	20.2 µM (inactive)	25.5 µM (inactive)	14 µM (inactive)	92 µM (inactive)	31.5 µM (inactive)	17.2 µM (inactive)	16.1 µM (inactive)	50.2 µM (inactive)	58.2 µM (inactive)	31.1 µM (inactive)	97.7 µM (inactive)	25.1 µM (inactive)	25.4 µM (inactive)	14.8 µM (inactive)
CCOC(=O)c1ccc(/N=C/c2ccc(N(CCC#N)S(=O)(=O)c3ccccc3)cc2C)cc1	> 100 µM (inactive)	36.6 µM (inactive)	52.8 µM (inactive)	–	37.2 µM (inactive)	> 100 µM (inactive)	22.8 µM (inactive)	28.6 µM (inactive)	–	39.4 µM (inactive)	31.8 µM (inactive)	–	41.9 µM (inactive)	33.5 µM (inactive)	80.7 µM (inactive)	32.4 µM (inactive)	97.1 µM (inactive)	19.4 µM (inactive)	39.4 µM (inactive)
C=C/C=C(\NC(=O)C(Cl)(Cl)Cl)[Si](C)(C)C	> 100 µM (inactive)	> 100 µM (inactive)	> 100 µM (inactive)	> 100 µM (inactive)	> 100 µM (inactive)	> 100 µM (inactive)	> 100 µM (inactive)	> 100 µM (inactive)	> 100 µM (inactive)	> 100 µM (inactive)	> 100 µM (inactive)	> 100 µM (inactive)	> 100 µM (inactive)	> 100 µM (inactive)	> 100 µM (inactive)	> 100 µM (inactive)	> 100 µM (inactive)	> 100 µM (inactive)	–
C=C1C(=O)OC2C1C(OC(=O)/C(=C/C)COC(C)=O)CC1(CO1)C1C(OC(=O)/C(=C/C)CO)C=C(C)C21 (centres undefined)	1.66 µM (inactive)	0.333 µM (active)	2 µM (inactive)	–	1.64 µM (inactive)	1.89 µM (inactive)	3.19 µM (inactive)	0.378 µM (active)	1.65 µM (inactive)	2.86 µM (inactive)	12.2 µM (inactive)	0.394 µM (active)	5.81 µM (inactive)	1.87 µM (inactive)	2.29 µM (inactive)	2.26 µM (inactive)	15.1 µM (inactive)	1.59 µM (inactive)	0.502 µM (active)
Cc1cc(C)c(C(=O)C(C)C(c2ccccc2)c2ccc(Cl)cc2)c(C)c1 (centres undefined)	> 100 µM (inactive)	46.3 µM (inactive) and 67.5 µM (inactive)	> 100 µM (inactive)	–	34.4 µM (inactive) and 43.5 µM (inactive)	> 100 µM (inactive)	–	65.9 µM (inactive) and 50.7 µM (inactive)	> 100 µM (inactive)	49.4 µM (inactive) and 67.6 µM (inactive)	–	> 100 µM (inactive) and 77.6 µM (inactive)	> 100 µM (inactive)	–	> 100 µM (inactive)	> 100 µM (inactive)	> 100 µM (inactive)	> 100 µM (inactive)	> 100 µM (inactive)
